Experiments:
[1] = test system: patient-derived GB cells; assay: TMZ resistance evaluation, patient-derived GB cells in 2D culture; assay type: cell-based; conditions: Homo sapiens, 72 h, 3 patient-derived GB cells, 3 days, all three cell types, read-out: IC50 of TMZ, patient-derived cells grown in 2D culture
Procedure: The resistance of patient-derived cells to TMZ (LIXIN, China) was assessed in fibrin 3D-bio-ink and in 2D culture. Patient-derived cells were seeded in fibrin 3D-bio-ink at 1×10^7 cells/ml density to match resemble a very dens GB tissue, in different TMZ concentrations (2000 μM -0.01 μM) for 7 days. For the 2D culture TMZ resistance evaluation 20,000-40,000 cells/well were seeded in 24 well plate in fresh DMEM. We replaced the media to media with different TMZ concentrations (10 μM -0.01 μM) for 3 days. Then, the 3D-bio-ink samples were placed in 500 μl PrestoBlue in 24 well plate and incubated at 37° C. for 3 h.

[2] = test system: PD-GB4 cells; assay: 2D proliferation assay with SELPi (IncuCyte); assay type: cell-based, human; conditions: 0.5 μM SELPi
Procedure: (§1) For growth curve evaluation, U-87MG and T98G human GB cells dormant and fast-growing tumor cells (29) (25,000 cells/well) were seeded onto 24-well plates in complete DMEM and incubated for 72 h (37° C.; 5% CO2). For the comparison of […] cell types growth curves in 2D culture, 10,000 cells/well were cultured in DMEM following a daily incubation with PrestoBlue® reagent for 4 h. For proliferation evaluation in the presence of SELPi, U-87MG and T98G human GB cells generating dormant and fast-growing tumors, or PD-GB4 cells (25,000 cells/well) were plated onto 24-well plate in complete DMEM and incubated for 24 h (37° C.; 5% CO2) to allow cell attachment. Cells were then treated with either 0.5 μM SELPi or with DMSO vehicle at corresponding % v/v of 0.2% v/v, prepared in medium mixture at 1:1:1:1:1 ratio of DMEM, astrocytes medium, microglia medium, pericytes medium and Endo-Gro medium, for 30 min. All wells were washed twice with PBS and incubated further with fresh medium mixture. Cell proliferation was monitored by IncuCyte® Zoom Live cell analysis system (Essen Bioscience), while the first images were taken right before the treatment. Each group was assayed in triplicates and the experiment was repeated in three independent times. Proliferation of cells was normalized to time 0 and presented as percent (%) of cell confluence.

[3] = test system: T98G-F cells; assay: 2D proliferation assay with SELPi (IncuCyte); assay type: cell-based, human; conditions: 0.5 μM SELPi
Procedure: as §1

[4] = test system: U-87MG-F cells; assay: 2D proliferation assay with SELPi (IncuCyte); assay type: cell-based, human; conditions: 0.5 μM SELPi
Procedure: as §1

[5] = test system: PD-GB4 cells; assay: Proliferation in fibrin 3D-bio-ink in the presence of SELPi (ImageJ, RLU); assay type: cell-based, human; conditions: 0.5 M [sic] KF38789, fibrin 3D-bio-ink; p=0.0001
Procedure: (§2) PD-GB4 iRFP-labeled were casted into 96 glass bottom well plates (Cellvis, California, USA) in a core tumor at a density of 1×10^7 cells/ml and surrounded with 1×10^6 cells/ml un-labeled hAstro. Experiments were done in a medium mixture at 1:1:1 ratio of DMEM, astrocytes medium and microglia medium. For invasion estimation of dormant versus fast-growing cell types, mCherry-labeled U-87MG and T98-G human GB cells (2×10^6 cells/ml) were plated in a glass bottom 96-well plates in the core of fibrin 3D-bio-ink. The surrounding fibrin 3D-bio-ink was an empty, clear fibrin 3D-bio-ink. Experiments were done in a medium mixture at 1:1:1:1:1 ratio of DMEM, astrocytes medium, microglia medium, pericytes medium and Endo-Gro medium. Cell invasion was monitored for 2-5 weeks using EVOS FL Auto cell imaging system and quantified by ImageJ software, presented here as relative light units (RLU). Cells invasion was normalized by comparing the size of the cell core at day 1 (polygon drawing shape) up to day 14. 2 weeks. Each group contained 6-12 samples and the experiments were repeated in three independent times. For the evaluation of proliferation in the presence of P-selectin inhibitor (SELPi), mCherry-labeled U-87MG-F and T98G-F cells generating fast-growing tumors or iRFP-labeled PD-GB4 cells (4×10^6 cells/ml) were seeded in a glass bottom 96-well plate in the core of fibrin 3D-bio-ink. The surrounding fibrin 3D-bio-ink was an empty, clear fibrin 3D-bio-ink. Cells were then treated with […] KF38789 which is a selective inhibitor of P-selectin (SELPi) which were chosen to serve as a small molecule drug. […] P-selectin (SELP) functions as a cell adhesion molecule on the surfaces of cells which binds carbohydrates (18). It is also involved in tumor cell binding and promote their invasion by supporting a permissive metastatic microenvironment and SELP is highly expressed in GB (28). […] Proliferation was quantified during time with ImageJ software by RLU. […]

[6] = test system: T98G-F cells; assay: as above; assay type: cell-based, human; conditions: 0.5 M [sic] KF38789, fibrin 3D-bio-ink; p=0.00003
Procedure: as §2

[7] = test system: U-87MG-F cells; assay: as above; assay type: cell-based, human; conditions: 0.5 M [sic] KF38789, fibrin 3D-bio-ink; p=4×10^−6
Procedure: as §2

[8] = target: T1, P-selectin (SELP) (Homo sapiens, UniProt P16109); conditions: lymphocytes; read-out: IC50 for inhibition of SELP binding in lymphocytes; cited from earlier work
T1 sequence (P16109 42-830): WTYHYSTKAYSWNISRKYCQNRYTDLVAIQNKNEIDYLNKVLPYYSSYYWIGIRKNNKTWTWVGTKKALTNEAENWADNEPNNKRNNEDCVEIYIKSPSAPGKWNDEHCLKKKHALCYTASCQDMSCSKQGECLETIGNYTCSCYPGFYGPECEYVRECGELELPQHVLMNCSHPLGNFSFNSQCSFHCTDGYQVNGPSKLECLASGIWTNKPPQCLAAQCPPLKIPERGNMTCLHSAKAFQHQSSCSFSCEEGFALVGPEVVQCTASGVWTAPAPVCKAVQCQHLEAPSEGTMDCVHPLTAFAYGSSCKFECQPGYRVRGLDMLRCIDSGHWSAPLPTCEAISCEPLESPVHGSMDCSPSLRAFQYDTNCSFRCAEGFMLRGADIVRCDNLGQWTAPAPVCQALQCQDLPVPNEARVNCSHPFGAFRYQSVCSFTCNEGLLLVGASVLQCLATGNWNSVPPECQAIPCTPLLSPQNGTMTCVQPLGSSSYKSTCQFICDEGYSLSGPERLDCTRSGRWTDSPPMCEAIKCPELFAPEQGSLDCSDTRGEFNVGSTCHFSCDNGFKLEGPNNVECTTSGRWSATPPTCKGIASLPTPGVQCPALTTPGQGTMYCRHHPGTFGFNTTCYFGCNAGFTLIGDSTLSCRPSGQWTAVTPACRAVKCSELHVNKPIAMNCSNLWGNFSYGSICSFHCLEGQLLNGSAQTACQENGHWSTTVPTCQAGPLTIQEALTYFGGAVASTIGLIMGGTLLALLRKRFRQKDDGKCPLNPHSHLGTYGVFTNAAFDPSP

IC50 [1] [nM] | SMILES | Effect on proliferation of PD-GB4 in 2D culture [2] | Effect on T98G-F cells in 2D culture [3] | Effect on U-87MG-F cells in 2D culture [4] | Inhibition of PD-GB4 cell proliferation in fibrin 3D-bio-ink [5] | Inhibition of T98G fast-growing cells in fibrin 3D-bio-ink [6] | Inhibition of U-87MG fast-growing cells in fibrin 3D-bio-ink [7] | IC50 [8] [nM]
~4 | Cn1nnc2c(C(N)=O)ncn2c1=O [TMZ, Temozolomide] |  |  |  |  |  |  | 
 | COc1ccc(C2CC(c3c(O)cc(C)oc3=O)=NCCS2)c(OC)c1 (centres unmarked) [SELPi, KF38789] | did not affect | did not affect | did not affect | significant inhibition | significant inhibition | significant inhibition | 2000
